8 molecules from US20090275565A1, “Substituted aralkyl derivatives” (CADILA HEALTHCARE LIMITED, priority 2002, published 2009) can be followed below.

Counter-ions that a name gives are not always drawn.

One series has as its system C57BL/KsJ-db/db mice. Put plainly: Serum glucose lowering activity in db/db mice models. The class given is in vivo. Conditions: male C57BL/KsJ-db/db mice, oral gavage, 3 mg/kg/day, 6 days, one hour after dosing on 6th day. The method, then:
• iii) Serum glucose lowering activity in db/db mice models
Homozygous animal C57BL/KsJ-db/db mice are obese, hyperglycemic, hyperinsulinemic and insulin resistant (J. Clin. Invest., 85, 962-967, 1990), whereas heterozygous are lean and normoglycemic. The homozygous animals very closely mimic the human type II diabetes when blood sugar levels are not sufficiently controlled. Since this type of model resembles human type II diabetes mellitus, the compounds of the invention were tested for their antidiabetic activity in this model.
Male C57 BL/KsJ-db/db mice of 8 to 14 weeks age, having body weight range of 40 to 60 grams, procured from the Jackson Laboratory, USA, were used in the experiment.
Test compounds were suspended on 0.25% carboxymethyl cellulose or dissolved in water when the compound is water soluble and administered to test group containing 6 animals at a dose of 0.001 mg to 50 mg/kg through oral gavage daily for 6 days. The control group received vehicle (dose 10 ml/kg). On the 6th day, one hour after the drug dosing, blood was collected from retro-orbital sinus and the serum was analyzed for glucose and triglycerides were measured using commercial kits (Zydus-Cadila, Pathline, Ahmedabad, India). The serum glucose and triglyceride lowering activities of the test compound was calculated according of the formula: […]

The subject of the next series is Swiss albino mice. Put plainly: Serum triglyceride and total cholesterol lowering activity in Swiss albino mice. In kind it is in vivo. Conditions: male Swiss albino mice, oral, 3 mg/kg/day, 6 days, fed state 1 hour after dosing on 6th day. The method, then:
Male Swiss albino mice (SAM) were bred in Zydus animal house. All these animals were maintained under 12 hour light and dark cycle at 25±1° C. Animals were given standard laboratory chow (NIN, Hyderabad, India) and water ad libitum. SAM of 20-30 g body weight range were used.
The test compounds were administered orally to Swiss albino mice at 0.001 to 50 mg/kg/day dose for 6 days. The compound was administered after suspending it in 0.25% CMC or dissolving it in water, when compound is water-soluble. Control mice were treated with vehicle (0.25% of Carboxymethylcellulose; dose 10 ml/kg).
The blood samples were collected on 0th day and in fed state 1 hour after drug administration on 6th day of the treatment. The blood was collected in non heparinised capillary and the serum was analyzed for triglyceride and total cholesterol (Wieland, O. Methods of Enzymatic analysis. Bergermeyer, H., O., Ed., 1963. 211-214; Trinder, P. Ann. Clin. Biochem. 1969. 6: 24-27). Measurement of serum triglyceride and total cholesterol was done using commercial kits (Zydus-Cadila, Pathline, Ahmedabad, India).
Percentage reduction in triglycerides/total cholesterol were calculated according to the formula: […]

The subject of series [1] is hypercholesterolemic rat models. Kind of series: Cholesterol lowering activity in hypercholesterolemic rat models. The settings on record: hypercholesterolemic male Sprague Dawley rats, oral, 3 mg/kg/day, serum. In kind it is in vivo. Here is the method:
• ii) Cholesterol lowering activity in hypercholesterolemic rat models
Male Sprague Dawley rats stock bred in Zydus animal house were maintained under 12 hour light and dark cycle at 25±1° C. Rats of 100-150 g body weight range were used for the experiment. Animals were made hypercholesterolemic by feeding 1% cholesterol and 0.5% sodium cholate mixed with standard laboratory chow (NIN, Hyderabad, India) and water ad libitum for 5 days. The animals were maintained on the same diet throughout the experiment [Petit D., Bonnefis M. T., Rey C and Infante R., Effects of ciprofibrate on liver lipids and lipoprotein synthesis in normal and hyperlipidemic rats, Atherosclerosis, 74, 215-225 (1988)].
The test compounds were administered orally at a dose 0.03 to 50 mg/kg/day for 4 days, after suspending it in 0.25% CMC or dissolving it in water when compound is water-soluble. Control group was treated with vehicle alone (0.25% of Carboxymethylcellulose; dose 10 ml/kg).
The blood samples were collected in fed state on 0th and 1 hour after drug administration on 6th day of the treatment. The blood was collected from the retro-orbital sinus through non-heparinised capillary and the serum samples were analyzed for triglyceride and total cholesterol using commercial kits (Zydus-Cadila, Pathline, Ahmedabad, India). LDL and HDL by commercial kits (point Scientific, USA). LDL and VLDL cholesterol were calculated from the data obtained for total cholesterol, HDL and triglyceride.
The reduction in VLDL cholesterol is calculated according to the formula.
VLDL cholesterol in mg/dl=Total cholesterol−HDL cholesterol−LDL cholesterol

As for `CCOC[C@H](Cc1ccc(OCCc2nc(-c3ccccc3)oc2C)cc1)OCC` [Compound 84, 1-Ethoxy-(2S)-ethoxy-3-[4-{2-(5-methyl-2-phenyl-oxazol-4-yl)-ethoxy}-phenyl]-propane], in the series on C57BL/KsJ-db/db mice, the “Plasma TG reduction (%)” value worked out at 47% and the “Serum Glucose reduction (%)” value is 47%. The term melting point denotes the temperature of the solid-liquid transition. With `CCO[C@H](CN)Cc1ccc(OCc2nc(-c3ccccc3)oc2C)cc1.O=C(O)C(=O)O`, the melting point came out at 135 °C. Same read-out and setting: for `CCO[C@H](CN)Cc1ccc(OCCc2nc(-c3ccccc3)oc2C)cc1` (as salt: bisulphate) [Compound 167, Bisulphate Salt of 2S-Ethoxy-3-{4-[2-(5-methyl-2-phenyl-oxazol-4-yl)-ethoxy]-phenyl}-propyl amine] the value was 175 °C. Take `CCO[C@H](CO)Cc1ccc(OCCc2nc(-c3ccccc3)oc2C)cc1` [Compound 64, (2S)-Ethoxy-3-{4-[2-(5-methyl-2-phenyl-oxazol-4-yl)-ethoxy]-phenyl}-propan-1-ol]: in the series with C57BL/KsJ-db/db mice, the “Plasma TG reduction (%)” value was found to be 74% and the “Serum Glucose reduction (%)” value is on record as 56%.

On to `CCO[C@H](CN)Cc1ccc(OCCc2nc(-c3ccccc3)oc2C)cc1` [Compound 134, (2S)-Ethoxy-3-{4-[2-(5-methyl-2-phenyl-oxazol-4-yl)-ethoxy]-phenyl}-propylamine], for which the “% Triglyceride lowering” value in the series with Swiss albino mice worked out at 54%. As for `CCO[C@H](COC(=O)CBr)Cc1ccc(OCCc2nc(-c3ccccc3)oc2C)cc1` [Compound 90, (2S)-Ethoxy-3-{4-[2-(5-methyl-2-phenyl-oxazol-4-yl)-ethoxy]-phenyl}-propyl bromo-acetate], in series [1], the “Total cholesterol reduction (%)” value was found to be 56%. Still for that read-out and setting: then `CCO[C@H](CN)Cc1ccc(OCc2nc(-c3ccccc3)oc2C)cc1` [Compound 141, (2S)-Ethoxy-3-{4-[5-methyl-2-phenyl-oxazol-4-ylmethoxy]-phenyl}-propylamine], with 61%. In the case of `CCO[C@@H](Cc1ccc(OCc2nc(-c3cccs3)oc2C)cc1)C(=O)O` [Compound 27, (2S)-Ethoxy-3-[4-(5-methyl-2-thiophen-2-yl-oxazol-4-ylmethoxy)-phenyl]-propanoic acid], the “Total cholesterol reduction (%)” value in series [1] was determined as 44%.
